According to publication PMC4222822, “Discovery and Characterization of a Potent and Selective Inhibitor of Aedes aegypti Inward Rectifier Potassium Channels” (PLoS ONE, 2014):

Columns and labels:
Kir2.2 = target: T1, Kir2.2 (Homo sapiens, UniProt Q14500); assay: Tl+ flux selectivity assay, Kir2.2; assay type: cell-based; details: n = 2 independent experiments in triplicate, read-out: Inhibition of Tl+ flux (IC50)
T1 construct: expressed in transfected cells
T1 sequence (Q14500 1-433): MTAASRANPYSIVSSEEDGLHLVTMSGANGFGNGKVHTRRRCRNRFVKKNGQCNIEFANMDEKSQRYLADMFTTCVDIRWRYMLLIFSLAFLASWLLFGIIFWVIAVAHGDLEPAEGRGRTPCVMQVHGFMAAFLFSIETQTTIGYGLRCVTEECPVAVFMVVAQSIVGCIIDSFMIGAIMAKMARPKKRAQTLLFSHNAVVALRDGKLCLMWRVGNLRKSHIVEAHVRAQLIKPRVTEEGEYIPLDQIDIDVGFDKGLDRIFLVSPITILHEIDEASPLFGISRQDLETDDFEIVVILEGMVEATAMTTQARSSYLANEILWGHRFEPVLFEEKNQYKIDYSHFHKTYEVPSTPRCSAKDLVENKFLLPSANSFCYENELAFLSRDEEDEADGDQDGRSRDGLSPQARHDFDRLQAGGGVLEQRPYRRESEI
Experimental: [Worded in the source for another target; used here, by the source, with some conditions changed.] (§1) Tl^+ flux assays were performed essentially as described previously, [18], [19]. Briefly, stably transfected T-Rex-HEK-293 cells expressing AeKir1 channels were cultured overnight in 384-well plates (20,000 cells/20 µL/well black-walled, clear-bottomed BD PureCoat amine-coated plates (BD, Bedford, MA) with a plating media containing DMEM, 10% dialyzed FBS and 1 µg/mL tetracycline. The next day, the cell culture medium was replaced with a dye-loading solution containing assay buffer (Hanks Balanced Salt Solution with 20 mM HEPES, pH 7.3), 0.01% (w/v) Pluronic F-127 (Life Technologies, Carlsbad, CA), and 1.2 µM of the thallium-sensitive dye Thallos-AM (TEFlabs, Austin, TX). Following 1 hr incubation at room temperature, the dye-loading solution was washed from the plates and replaced with 20 µL/well of assay buffer. […] Tl^+ flux data were analyzed as previously described, [21], [22] using a combination of Excel (Microsoft Corp, Redmond, WA) with XLfit add-in (IDBS, Guildford, Surrey, UK) and OriginPro (OriginLab, Northampton, MA) software. […] The slope of the fluorescence increase beginning 5 s after Tl^+ addition and ending 15 s after Tl^+ addition was calculated.

Kir6.2/SUR1 = target: T2, Kir6.2/SUR1 (Homo sapiens, UniProt Q14654); assay: Tl+ flux selectivity assay, Kir6.2/SUR1; assay type: cell-based; details: Kir6.2/SUR1, diazoxide 250 µM; n = 2 independent experiments in triplicate; read-out: Inhibition of Tl+ flux (IC50)
T2 construct: expressed in transfected cells
T2 sequence (Q14654 whole entry): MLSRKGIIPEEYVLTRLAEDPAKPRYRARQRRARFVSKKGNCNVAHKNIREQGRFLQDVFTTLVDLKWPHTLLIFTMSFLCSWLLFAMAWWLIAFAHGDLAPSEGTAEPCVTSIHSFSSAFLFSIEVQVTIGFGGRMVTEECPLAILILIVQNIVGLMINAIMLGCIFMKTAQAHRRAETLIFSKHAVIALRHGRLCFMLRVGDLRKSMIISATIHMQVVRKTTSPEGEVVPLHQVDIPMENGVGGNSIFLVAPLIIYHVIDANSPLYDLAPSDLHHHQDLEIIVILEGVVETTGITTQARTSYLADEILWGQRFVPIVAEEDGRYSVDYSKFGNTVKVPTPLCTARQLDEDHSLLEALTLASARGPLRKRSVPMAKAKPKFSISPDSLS
T2 sequence (Q09428 whole entry partner): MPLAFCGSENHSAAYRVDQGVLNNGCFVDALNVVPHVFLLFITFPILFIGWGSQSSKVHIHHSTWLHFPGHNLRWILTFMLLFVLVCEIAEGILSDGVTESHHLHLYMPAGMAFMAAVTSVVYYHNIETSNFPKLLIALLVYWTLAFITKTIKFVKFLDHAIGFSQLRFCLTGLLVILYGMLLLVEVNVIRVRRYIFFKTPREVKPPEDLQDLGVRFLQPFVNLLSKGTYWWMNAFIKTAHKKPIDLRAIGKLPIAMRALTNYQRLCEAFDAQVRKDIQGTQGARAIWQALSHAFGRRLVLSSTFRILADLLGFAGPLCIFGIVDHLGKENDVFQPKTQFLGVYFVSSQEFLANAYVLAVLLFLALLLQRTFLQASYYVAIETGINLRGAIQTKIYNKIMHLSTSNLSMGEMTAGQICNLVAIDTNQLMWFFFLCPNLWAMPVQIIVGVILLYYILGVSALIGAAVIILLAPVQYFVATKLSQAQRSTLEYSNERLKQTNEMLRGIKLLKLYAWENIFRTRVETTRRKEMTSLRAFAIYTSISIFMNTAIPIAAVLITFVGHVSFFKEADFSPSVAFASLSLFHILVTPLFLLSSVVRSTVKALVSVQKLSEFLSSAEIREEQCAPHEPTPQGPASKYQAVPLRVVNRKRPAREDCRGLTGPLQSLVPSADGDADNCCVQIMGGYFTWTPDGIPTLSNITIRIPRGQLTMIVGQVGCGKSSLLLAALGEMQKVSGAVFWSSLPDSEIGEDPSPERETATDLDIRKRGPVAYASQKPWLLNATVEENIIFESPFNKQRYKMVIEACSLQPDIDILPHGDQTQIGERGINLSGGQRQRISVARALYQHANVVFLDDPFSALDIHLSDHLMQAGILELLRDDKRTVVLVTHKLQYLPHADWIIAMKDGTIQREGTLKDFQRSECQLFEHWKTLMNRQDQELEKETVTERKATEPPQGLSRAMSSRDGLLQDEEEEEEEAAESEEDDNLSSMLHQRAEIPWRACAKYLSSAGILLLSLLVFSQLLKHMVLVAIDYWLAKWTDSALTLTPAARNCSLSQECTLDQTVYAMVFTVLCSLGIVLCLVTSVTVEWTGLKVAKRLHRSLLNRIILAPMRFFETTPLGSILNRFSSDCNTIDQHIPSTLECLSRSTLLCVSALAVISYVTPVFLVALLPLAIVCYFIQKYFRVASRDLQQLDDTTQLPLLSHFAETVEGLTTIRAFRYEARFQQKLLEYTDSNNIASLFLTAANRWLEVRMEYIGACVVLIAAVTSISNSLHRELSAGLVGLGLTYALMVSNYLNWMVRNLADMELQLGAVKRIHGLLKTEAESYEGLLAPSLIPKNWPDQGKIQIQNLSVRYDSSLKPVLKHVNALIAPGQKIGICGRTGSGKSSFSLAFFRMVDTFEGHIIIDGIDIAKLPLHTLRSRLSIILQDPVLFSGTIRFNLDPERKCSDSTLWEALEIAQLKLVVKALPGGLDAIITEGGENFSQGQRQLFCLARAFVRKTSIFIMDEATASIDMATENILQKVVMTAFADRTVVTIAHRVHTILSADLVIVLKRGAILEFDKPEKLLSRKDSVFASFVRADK
Experimental: [Worded in the source for another target; used here, by the source, with some conditions changed.] as §1

[1] = test system: 68 mammalian GPCR's, ion channels, and transporters; assay: Radioligand displacement assays, panel of 68 targets; assay type: binding; details: 10 µM, active defined as >50% ligand displacement

SMILES: CCC(=O)N1c2ccc(S(=O)(=O)Nc3cccc(OC)c3)cc2CC1C (stereo not drawn) [VU625, N-(3-methoxyphenyl)-2-methyl-1-propionylindoline-5-sulfonamide]
- IC50 (Kir2.2): > 30 µM
- IC50 (Kir6.2/SUR1): > 30 µM
- activity in radioligand displacement panel [1]: against only three targets
